Several values for one entry are separate records, joined by “and”; a condition that tells them apart may be missing. Identical values can stand only once.
How the values were obtained:
[1] = test system: alloxan-induced diabetic rats; assay: Blood glucose level in alloxan-induced diabetes model; type: in vivo, Wistar female rats; conditions: mean ± SD; for Blood glucose (BG) level, mean: alloxan-induced diabetic rats, oral gavage daily for 5 weeks, metformin 300 mg/kg/day, S 150 mg/kg/day, sage extract 150 mg/kg/day; for Average blood glucose reduction (pre- vs post-treatment): end of week 3 vs end of week 8, oral daily 5 weeks, metformin 300, S 150, sage 150 mg/kg/day
Experimental: The in vivo experiment was conducted using Wistar female rats, obtained through the “Grigore T. Popa” University of Medicine and Pharmacy (UMF) Iași, from the Cantacuzino Institute in Bucharest, Romania. Throughout the experimental period, the animals were housed at the CEMEX biobase, within the UMF “Grigore T. Popa” Iași. […] Female rats were selected in alignment with the broader research objective focused on diabetes-induced alterations of the female reproductive system.
Following a 7-day acclimatization period, diabetes was induced in groups 2–6 by a single intraperitoneal injection of alloxan at a dose of 150 mg/kg body weight.
Blood glucose (BG) was assessed 5 days post-administration using peripheral tail vein blood. A threshold of 200 mg/dL was used to confirm severe hyperglycemia. […] The end of week 3 thus marked the point of confirmed diabetes and the onset of pharmacological interventions. […] The full experimental timeline extended over 8 weeks.
To minimize potential confounders, all experimental procedures—including compound administration and blood glucose level measurements— were performed at the same time of day for all animals. Blood glucose (BG) levels were monitored weekly using a portable glucometer (tail vein blood).
To quantify the hypoglycemic effect of the applied treatments, the percentage decrease in blood glucose was calculated based on pre- and post-treatment values using the following formula: Absolute decrease in blood glucose %=blood glucose (pre−treatment)−blood glucose (post−treatment)/blood glucose (pre−treatment)×100

[2] = Plasma steady-state concentration by HPLC and volume of distribution; conditions: female, Wistar, rat, oral, 300 mg/kg/day, rats, oral daily dosing 5 weeks, HPLC, metformin 300 mg/kg/day, S 150 mg/kg/day
Experimental: At the end of the experimental period, blood samples were collected from the retro-orbital plexus under ketamine anesthesia (75 mg/kg body weight). Samples were collected into EDTA-coated tubes and stored at −20 °C until biochemical analyses were performed. Finally, the animals were humanely euthanized using Thiopental 0.01%.
Extraction of the target compounds from whole blood samples was performed using a liquid–liquid extraction method, with dichloromethane as the organic solvent (sample: solvent ratio 1:2). The extraction was carried out under acidic conditions (pH 3, using 4% acetic acid). Following centrifugation, the organic phase was evaporated under a stream of high-purity nitrogen gas at 40 °C (Thermo Scientific, Bremen, Germany). The resulting dry residue was reconstituted in 500 µL of 10% methanol in water.
Separation was achieved on a 150-4.6 LiChrospher®RP-18, 5 µm, column (Merck, Darmstadt, Germany). […] The flow rate was set to 1.0 mL/min, and the total run time for each analysis was 30 min.
The volume of distribution at steady state (Vd) was calculated using the following formula: Vd=D/Css(L) where D represents the administered dose, calculated individually based on each animal’s body weight (mg/kg), and Css is the steady-state plasma concentration (mg/L).

[3] = parameters: method as in earlier work; conditions: rats, ref 42 (Choi et al. 2006); cited from earlier work

Molecule	Blood glucose (BG) level, mean [1] [mg/dL]	Average blood glucose reduction (pre- vs post-treatment) [1]	concentration at 5 weeks ([2]; Average plasma concentration (steady state), mean ± SD) [ng/mL]	concentration at 5 weeks ([2]; Plasma concentration, range) [ng/mL]	Fraction of oral dose subject to gastrointestinal and hepatic first-pass effects [3]
N-(diaminomethylene)-4-methylbenzenesulfonamide	236.0 ± 94.70	40.6% and 40.95 ± 15.94%	–	–	–
CN(C)C(=N)N=C(N)N [metformin]	224.8 ± 192.78	36.4% and 36.46 ± 32.5% and 36.46%	5320 ± 1580	3170 to 7540	approximately 65%
